Source: US20100056948A1, “Stimulation of Satiety Hormone Release” (priority 2008, published 2010)

Tests used:
[1] = test system: segments of duodenum, jejunum ileum, colon, esophagus, stomach; assay: GLP-1 release from segments of the entire GI tract incubated in linoleic acid; assay type: cell-based, rat; settings: LA 3 mg/mL, 45 minutes (FIG. 2)
isolated ileum = assay: Muscle tone of isolated ileum (force transducer); assay type: cell-based, rat; settings: for Change in muscle tone of isolated ileum after 40 min compared to KRB buffer: P<0.05 by ANOVA
Experimental: (§1) Female Sprague-Dawley rats, 8-12 weeks weighing 250-300 g were euthanized by CO2 and at least 17 cm of distal ileum was immediately dissected starting at the ileocecal junction. Intraluminal contents were flushed with warm modified Krebs Ringers bicarbonate (KRB) buffer and intestines placed into 50 mL tubes containing oxygenated, cold KRB buffer. Intact segments (1.5 cm) of rat distal ileum were oriented longitudinally, with the oral end fixed in the organ chamber between bipolar stimulating electrodes and the aboral end attached to a solid-state force transducer and submerged in a 10 ml-chamber containing KRB at 37° C. and constantly aerated with 95% O2/5% CO2 (FIG. 1). […] The entire assembly was placed into 37° C. KRB buffer in jacketed 10 mL myobath chambers. The length of each segment was adjusted to an initial resting tension of 1 g and maintained at 37° C. in a KRB buffer or KRB containing linoleic acid (LA, 3 mg/mL) and a dipeptidyl peptidase-4 inhibitor (to prevent proteolysis of GLP-1). Contractile activity was digitized and data acquired for off line analysis using PowerLab hardware and Chart software (ADInstruments, Colorado Springs, Colo.). In separate experiments, segments were incubated in KRB or KRB+LA in the presence or absence of electrical field stimulation continuously for 45 min. Samples of the bathing solutions taken at 45 min and mucosal epithelial scrapings were stored frozen (minus 80° C.).
Muscle tone and contractile amplitude (calculated as the average cyclic minimum and maximum, respectively) were determined for 5 min periods, pre- (˜5 min before) and post-treatment (40 min after start). The tone and amplitude at −5 and +40 minutes for each condition was compared to that condition's baseline by one-way ANOVA.

[2] = test system: rat distal ileum (L-cells); assay: GLP-1 release from isolated rat distal ileum segments into the bathing medium (active GLP-1 ELISA), with or without electrical field stimulation; assay type: cell-based; settings: for GLP-1 release, LA alone (mean ± SEM): LA 3 mg/mL 45 min, no E-stim
Experimental: as §1
Active GLP-1 concentration in thawed aliquots was measured by fluorescence on a plate reader using an ELISA (Linco Research, St. Charles, Mo.) with a detection range of 2-100 pM. This method measures both biologically active forms of GLP-1, that is GLP-1(7-36) and (GLP-1(7-36)) amide, that are currently known to be released by the intestinal mucosa. Measurements of GLP-1 were normalized to concentration in 10 mL volume and reported as pM. The mean and SEM GLP-1 release was calculated for each treatment. For each electrical stimulation condition (+/−LA) there were 2-6 rats with 2-4 segments of tissue per rat per condition.
Statistical analysis was performed that included all conditions (with condition defined by the combination of frequency, voltage and duration of the electrical stimulation) and included a term for condition, treatment (LA alone or LA plus electrical stimulation) as a repeated factor, and the interaction between the two. Treatment is a within-subject effect, allowing each subject's LA alone response to serve as the control for that subject's response with electrical stimulation from the same study day. GLP-1 release was analyzed by repeated measures analyses of variance (ANOVA) on all eleven conditions with LA alone or LA plus electrical stimulation as a repeated factor. The mean and SEM reported in the tables below are based on 2-6 rats per condition with data from two replicates of each electrical stimulation condition averaged per rat. The P values are reported based on repeated measures analyses of variance (ANOVA) for each analysis and for the pairwise comparisons. The data were log-transformed prior to analyses to better satisfy the underlying statistical modeling assumptions of equal variability and sampling from populations with normal distributions.

CCCCC/C=C\C/C=C\CCCCCCCC(=O)O [LA, linoleic acid]
GLP-1 concentration in the bathing medium ([1]; segments of duodenum, jejunum ileum and colon): increased | GLP-1 concentration in the bathing medium ([1]; segments of esophagus or stomach): not | Change in muscle tone of isolated ileum after 40 min compared to KRB buffer (isolated ileum; LA combined with E-stim 14V 40 Hz 5 ms): significant reduction | Change in muscle tone of isolated ileum after 40 min compared to KRB buffer (isolated ileum; LA combined with E-stim 14 V 80 Hz 5 ms): significant reduction | Muscle tone of isolated ileum compared to KRB buffer alone (isolated ileum; LA with E-stim 14V 0.4 Hz 300 ms): not different | Muscle tone of isolated ileum compared to KRB buffer alone (isolated ileum; LA with E-stim 14V 20 Hz 5 ms): not different | Change in muscle tone of isolated ileum after 40 min (isolated ileum; incubation in LA alone (FIG. 9)): tended to decrease | GLP-1 release, LA alone (mean ± SEM) ([2]; paired control for 0.15 Hz 0.7 V 300 ms): 17.9 ± 4.1 pM | GLP-1 release, LA alone (mean ± SEM) ([2]; paired control for 0.15 Hz 2 V 5 ms): 12.1 ± 4.0 pM | GLP-1 release, LA alone (mean ± SEM) ([2]; paired control for 0.15 Hz 5 V 5 ms): 17.6 ± 5.9 pM | GLP-1 release, LA alone (mean ± SEM) ([2]; paired control for 0.15 Hz 10 V 5 ms): 19.5 ± 9.0 pM | GLP-1 release, LA alone (mean ± SEM) ([2]; paired control for 0.15 Hz 20 V 5 ms): 12.5 ± 1.7 pM | GLP-1 release, LA alone (mean ± SEM) ([2]; paired control for 0.4 Hz 14 V 5 ms): 11.0 ± 2.8 pM | GLP-1 release, LA alone (mean ± SEM) ([2]; paired control for 0.4 Hz 14 V 300 ms): 12.7 ± 2.4 pM | GLP-1 release, LA alone (mean ± SEM) ([2]; paired control for 4 Hz 14 V 5 ms): 8.6 ± 1.8 pM | GLP-1 release, LA alone (mean ± SEM) ([2]; paired control for 20 Hz 14 V 5 ms): 14.4 ± 5.9 pM | GLP-1 release, LA alone (mean ± SEM) ([2]; paired control for 40 Hz 14 V 5 ms): 10.2 ± 2.1 pM | GLP-1 release, LA alone (mean ± SEM) ([2]; paired control for 80 Hz 14 V 5 ms): 20.6 ± 3.4 pM | GLP-1 release, LA + E-stim (mean ± SEM) ([2]; LA 3 mg/mL 45 min plus electrical stimulation 0.15 Hz 0.7 V 300 ms, p 0.257 vs LA alone): 22.1 ± 4.2 pM | GLP-1 release, LA + E-stim (mean ± SEM) ([2]; LA 3 mg/mL 45 min plus electrical stimulation 0.15 Hz 2 V 5 ms, p 0.948 vs LA alone): 11.1 ± 1.0 pM | GLP-1 release, LA + E-stim (mean ± SEM) ([2]; LA 3 mg/mL 45 min plus electrical stimulation 0.15 Hz 5 V 5 ms, p 0.344 vs LA alone): 22.6 ± 9.4 pM | GLP-1 release, LA + E-stim (mean ± SEM) ([2]; LA 3 mg/mL 45 min plus electrical stimulation 0.15 Hz 10 V 5 ms, p 0.311 vs LA alone): 29.4 ± 6.6 pM | GLP-1 release, LA + E-stim (mean ± SEM) ([2]; LA 3 mg/mL 45 min plus electrical stimulation 0.15 Hz 20 V 5 ms, p 0.212 vs LA alone): 16.5 ± 3.7 pM | GLP-1 release, LA + E-stim (mean ± SEM) ([2]; LA 3 mg/mL 45 min plus electrical stimulation 0.4 Hz 14 V 5 ms, p 0.761 vs LA alone): 10.4 ± 1.8 pM | GLP-1 release, LA + E-stim (mean ± SEM) ([2]; LA 3 mg/mL 45 min plus electrical stimulation 0.4 Hz 14 V 300 ms, p 0.056 vs LA alone): 31.3 ± 5.9 pM | GLP-1 release, LA + E-stim (mean ± SEM) ([2]; LA 3 mg/mL 45 min plus electrical stimulation 4 Hz 14 V 5 ms, p 0.838 vs LA alone): 9.1 ± 1.4 pM | GLP-1 release, LA + E-stim (mean ± SEM) ([2]; LA 3 mg/mL 45 min plus electrical stimulation 20 Hz 14 V 5 ms, p 0.152 vs LA alone): 32.6 ± 12.2 pM | GLP-1 release, LA + E-stim (mean ± SEM) ([2]; LA 3 mg/mL 45 min plus electrical stimulation 40 Hz 14 V 5 ms, p 0.016 vs LA alone): 38.1 ± 11.1 pM | GLP-1 release, LA + E-stim (mean ± SEM) ([2]; LA 3 mg/mL 45 min plus electrical stimulation 80 Hz 14 V 5 ms, p 0.391, includes one result designated 100 pM (upper level of detection, actual 178 pM)): 33.7 ± 12.4 pM | LA-evoked increase of GLP-1 in the presence of TTX ([2]; TTX 0.5 μM concurrently with linoleic acid for 45 min (FIG. 7)): persisted | GLP-1 released after 45 mins incubation in LA ([2]; compiled data from 51 distal ileum segments, LA 3 mg/mL, mean ± SEM, KRB buffer alone 3.6 pM): 21.9 ± 2.6 pM | Enhancement of GLP-1 released during incubation with nutrient stimulus by E-stim compared to LA alone ([2]; four electrical stimulation conditions with total charge 1400, 1680, 2800 and 5600 μC): 150-300% | Increase of GLP-1 release by electrical stimulation together with LA over that evoked by LA alone ([2]; in the presence of TTX 0.5 μM, E-stim 14V 0.4 Hz 300 ms, 45 min): 239±64% | LA concentration giving maximal GLP-1 response ([2]; tissue incubated in 1, 3 and 10 mg/mL LA, data not shown): 3 mg/mL | GLP-1 concentration over time ([2]; two segments of ileum incubated in 3 mg/ml LA (FIG. 4)): increased over time

NC1=N[C@H](O)[C@H]2[C@H]3O[C@]4(O)O[C@@H]([C@@H](O)[C@@]2(N1)[C@@H]4O)[C@]3(O)CO [TTX, tetrodotoxin]
Effect of TTX alone on GLP-1 release [2]: no effect | Effect of tetrodotoxin on the two-fold increase in GLP-1 evoked by direct electrical stimulation of ileal tissue [2]: did not prevent
